Laboratory results published in PubChem BioAssay AID1159560 (GlaxoSmithKline (GSK), 2015).
pIC50: −log10 of the molar value. Activity calls are given as the source filed them. The rule behind the calls is not given here.

Tested on: Leishmania donovani growth inhibition
Experiment: antileishmanial activity against L. donovani parasites (AID 1159560);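 note: parasites exposed to compound for 72 h before the viability read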

SMILES	pIC50	IC50
COc1ccc(Cc2nc(-c3ncc4cccnc4c3O)n[nH]2)cc1OC	6.49	–
CC(=O)Nc1cccc(Nc2ncnc3nc[nH]c23)c1	–	> 50 µM (inactive)
O=C(Nc1cccc(Cl)c1)Nc1ccc([N+](=O)[O-])cc1Cl	5.20	–
Cc1nc2c(-c3nc(-c4ccc(N)cc4)n[nH]3)cccn2c1C	5.49	–
NC(=O)c1cc(NC(=O)c2ccccc2COc2ccccc2)ccc1Cl	5.10	–
CNC(=O)C1Cc2ccccc2N1C(=O)COc1cccc(OC)c1 (stereo not given)	–	> 50 µM (inactive)
Cc1[nH]n2c(=O)c3c(nc2c1-c1ccc(Br)cc1)CCCC3	5.00	–
COc1ccc(C(=O)Nc2cc(C(F)(F)F)ccc2N2CCOCC2)c(OC)c1	5.30	–
O=C1NCCn2ccc(Nc3nc(NC4CCC(O)CC4)ncc3Cl)c21 (stereo not given)	5.60	–
O=C(NCc1nnc2n1CCCCC2)c1ccc(-c2ccc(F)cc2)o1	–	> 50 µM (inactive)
O=C(CC1(O)C(=O)N(Cc2cccs2)c2ccc(Br)cc21)c1cccnc1 (stereo not given)	–	> 50 µM (inactive)
COc1ccc(S(=O)(=O)NC(C)C)cc1Nc1ncc(-c2cccc(F)c2)cn1	5.20	–
O=C(Nc1ccccc1C(=O)Nc1ccccn1)c1ccco1	–	> 50 µM (inactive)
O=C(Nc1ccc(C(=O)N2CCCC2c2ccc3c(c2)OCCCO3)cc1)c1ccco1 (stereo not given)	6.10	–
O=C(CSc1ccc(-c2ccccn2)nn1)Nc1ccc(Cl)cc1	–	> 50 µM (inactive)
CS(=O)(=O)NC1CCC(Oc2cc3cnccc3cc2-c2ccsc2)CC1 (stereo not given)	4.49	–
O=C(Nc1nc(-c2ccccn2)cs1)c1ccccc1-n1cnnn1	5.49	–
Cc1ccc2nc(N(Cc3cccnc3)C(=O)CCc3ccccc3)sc2c1	4.60	–
O=C(CN1CCC2(O)CCCCC2C1c1ccc2c(c1)OCO2)Nc1ccc(Cl)cc1Cl (stereo not given)	5.30	–
Cc1ccccc1CNc1cc(C2CC2)nc(-c2nccn2C)n1	5.80	–
CCN(CC)S(=O)(=O)c1ccc(Cn2nc(C(=O)Nc3ccncn3)c3ccccc32)cc1	–	> 50 µM (inactive)
Cc1cc2ncn(-c3ccc([N+](=O)[O-])cc3C#N)c2cc1C	–	> 50 µM (inactive)
CCN(C)Cc1ccc(N2CCC(NS(=O)(=O)c3ccc4c(c3)CCO4)CC2)nc1	–	> 50 µM (inactive)
COc1ccc(Oc2ccc(C(C)N(C)c3ncc4c(N)nc(N)nc4n3)cc2)cc1 (stereo not given)	7.40	–
NC(=O)c1ncccc1Nc1nc(NC2CCC(O)CC2)ncc1Br (stereo not given)	5.89	–
O=C(COc1ccccc1)Nc1ccccc1C(=O)Nc1nccs1	–	> 50 µM (inactive)
CN(Cc1cccnc1)Cc1ccc(N2CCN(C(=O)C3(c4ccc(Cl)cc4)CC3)CC2)nc1	4.49	–

SMILES	pIC50	IC50
CC(=O)Nc1ccc(Nc2nccc(-c3cnn4ncccc34)n2)cc1C(F)(F)F	6.70	–
CCOc1ccc(Nc2ccc(S(=O)(=O)N3CCN(C)CC3)cc2[N+](=O)[O-])cc1OCC	6.10	–
CN(C)CCOc1ccc(N2CCN(S(=O)(=O)c3ccc(Cl)cc3)CC2)cc1	4.40	–
Cc1cc(N2CCc3ccccc3C2)nc(Nc2ccc(S(=O)(=O)N3CCOCC3)cc2)n1	5.49	–
COc1ccc(-c2cc(C)no2)cc1S(=O)(=O)Nc1ccc(F)c(Cl)c1	4.60	–
COc1ccccc1C=CCN1C[C@H]2CCC[C@@H](C1)C2(O)c1cccnc1 (stereo not given in full)	–	> 50 µM (inactive)
Cc1nc2c(-c3n[nH]c(-c4ccccc4N)n3)cccn2c1C	5.20	–
O=c1ccc2ccc(F)c3c2n1C[C@H]3CN1CCC(NCc2cc3ccccc3o2)CC1	4.80	–
Cc1nccn1C1CCCN(C(=O)c2cc3c(F)cccc3s2)C1 (stereo not given)	5.30	–
COc1ccc(NS(=O)(=O)c2ccc(S(=O)(=O)N(C)C3CCCCC3)cc2)c2ncccc12	–	> 50 µM (inactive)
COc1ccccc1C1CC(c2ccc(NS(C)(=O)=O)cc2)=NN1C(=O)c1cccs1 (stereo not given)	5.40	–
CCCc1cc(N)nc(-c2cc(CCC)cc(N)n2)c1	4.70	–
NC(=O)c1ncc(N[C@@H]2CCCNC2)nc1Nc1cccc(Cl)c1	5.60	–
N#Cc1cccc(CN2CCC(N(Cc3cccnc3)C(=O)c3cc(F)c(F)cc3F)CC2)c1	–	> 50 µM (inactive)
Cc1ccc(Nc2nc(N)nc(CNC(c3nc4ccccc4[nH]3)C(C)C)n2)cc1 (stereo not given)	5.40	–
O=C(CSc1ccc(F)cc1)N[C@@H](Cc1cnc[nH]1)C(=O)NCCc1ccccc1	–	> 50 µM (inactive)
O=C(Nc1cccc(Cl)c1)N1CCCCC1c1cccnc1 (stereo not given)	5.49	–
CN(CCOc1ccc(Cl)cc1)Cc1nc(N)nc(N(C)C)n1	4.80	–
O=C(NCC(c1cccs1)N1CCOCC1)c1ccc([N+](=O)[O-])o1 (stereo not given)	4.49	–
COc1ccc(C2=NCC(CSc3nnc(-c4ccc5c(c4)OCO5)o3)S2)cc1 (stereo not given)	6.00	–
O=c1oc2ccccc2n1C1CCN(Cc2ccccc2-c2cccnc2)CC1	–	> 50 µM (inactive)
CN1CCCN(C(=O)c2ccc(N3CCCC3)cc2Cl)CC1	4.40	–
COc1ccc(-c2csc(NC(=O)c3ccc([N+](=O)[O-])s3)n2)cc1OC	6.00	–
Cc1ccc2onc(Nc3ccnc(Nc4cccc(S(C)(=O)=O)c4)n3)c2c1	5.30	–
c1ccc2c(CCOc3nccnc3-c3ccncc3)c[nH]c2c1	5.30	–
CCc1cccc(-n2nc(OCC(=O)NC3CCCC3)c3cccnc32)c1	5.60	–
Cc1cc(NC(=O)CC2CCCCC2)n(-c2nc3c(c(=O)[nH]2)CCC3)n1	7.49	–

SMILES	pIC50	IC50
COc1ccc(CNc2nsc3ccccc23)cc1OC	5.49	–
COc1cnc2ccc(=O)n(CCN3CCC(NC(=O)c4ccc(Cl)cc4)CC3)c2c1	5.70	–
O=C(Nc1ccc(Br)c(Cl)c1)Nc1ccc2c(c1)OCO2	–	> 50 µM (inactive)
COc1ccc2ncc(=O)n(CCN3CCC(NCc4ccc(-c5cccs5)cc4)CC3)c2n1	5.80	–
OC1CCC(Nc2nccc(-c3sc(C4CCOCC4)nc3-c3ccc(F)c(F)c3)n2)CC1 (stereo not given)	5.49	–
COc1cccc(NS(=O)(=O)c2ccc3[nH]cc(C(=O)NCCC(C)C)c(=O)c3c2)c1	–	> 50 µM (inactive)
CCCCn1c(=O)c2c(N)onc2n(CCCC)c1=O	–	> 50 µM (inactive)
COc1ccc([N+](=O)[O-])cc1NC(=O)c1cc(Cl)ccc1O	5.10	–
Cc1[nH]nc(-c2nc3ccccc3[nH]2)c1C(=O)NC1CCCNC1 (stereo not given)	5.00	–
Cc1ccccc1NS(=O)(=O)c1ccc2[nH]cc(C(=O)NC3CCCCC3)c(=O)c2c1	–	> 50 µM (inactive)
COc1ccc(Nc2nc(-c3ccccn3)cc(N3CCCC(O)C3)n2)cc1 (stereo not given)	5.60	–
COc1ccc(Cl)cc1CC(=O)Nc1n[nH]c(-c2ccccn2)n1	5.40	–
CCCCN(C(=O)c1ccc(NC(=O)C(C)C)cc1)c1ccccc1	6.00	–
Cc1cc(N(C)C)nc(Nc2ccccc2C)n1	–	> 50 µM (inactive)
COc1ccc2ncc(F)c(NC(=O)C3(O)CCC(NCc4ccc5c(c4)OCCO5)CC3)c2n1 (stereo not given)	4.40	–
COc1ccc(Nc2nc(NC3CCC(O)CC3)ncc2Br)c(C(N)=O)c1 (stereo not given)	5.49	–
CCCN(Cc1ccc(OC)c(OC)c1)Cc1cc(=O)c2c(C)cc(C)cc2[nH]1	4.70	–
Cc1ccc2c(c1)-c1onc(C(=O)N3CCCCC3c3cccnc3)c1CO2 (stereo not given)	4.49	–
COc1ccc(-c2nc3ncccc3o2)cc1NC(=O)c1cccs1	5.30	–
COc1ccc(CN2C(=O)C(O)(CC(=O)c3ccncc3)c3cc(Br)ccc32)cc1OC (stereo not given)	4.40	–
O=C(NCc1ccncc1)c1ccccc1N1CCCN(C(=O)Cc2ccc(F)c(F)c2)CC1	5.60	–
O=C(CN(c1cccc(C(F)(F)F)c1)S(=O)(=O)c1ccc(Cl)cc1)NCc1ccc(F)c(F)c1	–	> 50 µM (inactive)
CCCCc1cc(Nc2cc(C3CCC3)[nH]n2)nc(N2CCC2C(N)=O)n1 (stereo not given)	5.40	–
O=c1cc(NCCCNCc2c[nH]c3ccc(Br)cc23)[nH]c2ccccc12	–	> 50 µM (inactive)
CC(C)Oc1ccc(C(=O)Nc2ccc(N3CCOCC3)c(Cl)c2)cc1	–	> 50 µM (inactive)
COc1ccc2nc(N(Cc3cccnc3)C(=O)C3CCC3)sc2c1	4.89	–
C[C@@H](Oc1cc(-n2cnc3ccc(CC(O)CO)cc32)sc1C(N)=O)c1ccccc1Cl (stereo not given in full)	4.60	–

SMILES	pIC50	IC50
COc1ccc(CNc2cc(C3CC3)nc(-c3nccn3C)n2)cc1	5.70	–
C=CCn1nc([N+](=O)[O-])nc1Oc1ccc(Cl)cc1Cl	–	> 50 µM (inactive)
Cc1cc(N(C)C)nc2ccc(Cc3cnc(N)nc3N)cc12	–	> 50 µM (inactive)
COc1ccc(-c2cc(C)no2)cc1S(=O)(=O)Nc1ccc(C)c(C)c1	5.10	–
COc1cc(C(C)C)c(S(C)(=O)=O)cc1C(=O)N1CCN(c2ccccc2Cl)CC1	5.30	–
O=c1[nH]cnc2c([C@@H]3O[C@H](CO)[C@@H](O)[C@H]3O)[nH]nc12	6.40	–
CN(Cc1nnnn1C1CCN(Cc2ccc(-n3ccnc3)cc2)CC1)c1ccc(F)cc1F	–	> 50 µM (inactive)
COc1ccc(C(=O)Nc2c(C)nn(COc3cccc(C(F)(F)F)c3)c2C)cc1	–	> 50 µM (inactive)
O=C(Nc1ccccc1)Nc1nc(-c2ccccn2)cs1	5.80	–
N#Cc1ccccc1S(=O)(=O)N1CCN(C(=O)CNC(=O)c2ccc3c(c2)OCO3)CC1	6.20	–
CC(=O)Nc1nc(-c2cc(C)ccc2C)c(C)s1	–	> 50 µM (inactive)
O=C(NCCc1ccn(-c2ccccc2)n1)C1CCCCC1	–	> 50 µM (inactive)
COc1cccc2sc(CN(C)C(=O)C3CNCCN3c3ccc(F)cc3)c(C)c12 (stereo not given)	4.49	–
O=C(c1cccc(Cl)c1Cl)N1CCn2c1nc(-c1ccncc1)cc2=O	4.30	–
CCOC(=O)c1noc(N)c1-c1ccccc1	–	> 50 µM (inactive)
CCn1nccc1CN(C)C(=O)C=Cc1ccc(Cl)cc1	4.80	–
COc1cnc2ccc(=O)n(CCN3CCC(NC/C=C/c4cc(F)ccc4F)CC3)c2c1	5.30	–
CC(C)(C)C(=O)Nc1cc(C2CC2)nn1-c1nc2c(c(=O)[nH]1)CCCC2	7.10	–
Cc1cc2nc(N3CC[C@H]3C(N)=O)nc(Nc3cc(C4CC4)[nH]n3)c2s1	6.10	–
CN(C)S(=O)(=O)c1ccc(Cl)c(C(=O)Nc2nc(-c3ccccn3)cs2)c1	5.70	–
NC(=O)c1cc(F)ccc1Nc1nc(NC2CCC(O)CC2)ncc1Br (stereo not given)	5.80	–
COc1ccc(C(=O)NC2CCN(CCn3c(=O)ccc4ncc(F)cc43)CC2)cc1Cl	5.40	–
O=C(NCCc1csc(-c2cccc(F)c2)n1)c1ccco1	–	> 50 µM (inactive)
O=C(Nc1cccc(F)c1)N1CCC(Oc2cccc(-c3cccnc3)c2)CC1	6.30	–
